Legend:
[1] = tested on: glioblastoma SNB-19; experiment: WST-1 cell proliferation assay, SNB-19; assay type: cell-based, human; details: Homo sapiens; SNB-19, WST-1, 72 h; read-out: Anticancer Activity IC50 SNB-19
Protocol: (§1) Encouraged by our previous promising results in the field of antiproliferative activity of dipyridothiazines as well as by the good anticancer activity of the 1,2,3-triazoles, we decided to combine the biological potentials of dipyridothiazines and triazole moieties, hoping to obtain compounds with better activity. The antiproliferative activity of all 20 new 10-substituted 1,2,3-triazole derivatives of dipyridothiazines was tested in vitro against cancer cell lines: glioblastoma SNB-19, colorectal carcinoma Caco-2, lung cancer A549, and breast cancer MDA-MB231 using the WST-1 assay. Normal human fibroblasts NHDF were used as a control.
(§2) All dipyridothiazines with 1,2,3-triazole substituents (1–4)b–f were evaluated for their anticancer activity using four cultured cell lines: SNB-19 (human glioblastoma, DSMZ—German Collection of Microorganisms and Cell Cultures, Braunschweig, Germany), Caco-2 (human colon adenocarcinoma, DSMZ—German Collection of Microorganisms and Cell Cultures, Braunschweig, Germany), A549 (human lung carcinoma, ATCC, Manassas, VA, USA) and MDA-MB231 (human breast adenocarcinoma, ATCC, Manassas, VA, USA), and NHDF (human dermal fibroblast cell line, ATCC, Manassas, VA, USA. The cultured cells were kept at 37 °C and 5% CO2. The cells were seeded (1 × 10^4 cells/well/100 µL DMEM supplemented with 10% FCS and streptomycin and penicillin) using 96-well plates (Corning). The cells were counted in a hemocytometer (Burker’s chamber) using a phase contrast Olympus IX50 microscope equipped with Sony SSC-DC58 AP camera and Olympus DP10 digital camera.
(§3) Antiproliferative effect of the obtained compounds on the cancer cells was determined using the cell proliferation reagent WST-1 assay (Roche Diagnostics, Mannheim, Germany). This assay is based on the viable cell’s ability to cleave the bright red-colored tetrazolium salt (2-(4-iodophenyl)-3-(4-nitrophenyl)-5-(2,4-disulfophenyl)-2H-tetrazolium, monosodium salt) to dark red soluble formazan by cellular enzymes. An increase in the amount of formazan dye formed correlates to the number of metabolically active cells in the culture. The formazan dye produced by metabolically active cells is quantified by a scanning ELISA reader by measuring the absorbance of the dye solution at appropriate wavelengths. The examined cells were exposed to the tested compounds for 72 h at various concentrations between 0.1 μg/mL and 100 μg/mL (prepared initially at concentration of 1 mg/mL in DMSO). The cells were incubated with WST-1 (10 μL) for 1 h and the absorbance of the samples against a background control was measured at 450 nm using a microplate reader with a reference wavelength at 600 nm. The results are expressed as means of at least two independent experiments performed in triplicate.

[2] = tested on: colorectal carcinoma Caco-2; experiment: WST-1 cell proliferation assay, Caco-2; assay type: cell-based; details: Homo sapiens; Caco-2, WST-1, 72 h; read-out: Anticancer Activity IC50 Caco-2
Protocol: (§4) The antiproliferative activity of all 20 new 10-substituted 1,2,3-triazole derivatives of dipyridothiazines was tested in vitro against cancer cell lines: glioblastoma SNB-19, colorectal carcinoma Caco-2, lung cancer A549, and breast cancer MDA-MB231 using the WST-1 assay. Normal human fibroblasts NHDF were used as a control.
as §2, §3

[3] = tested on: lung cancer A549; experiment: WST-1 cell proliferation assay, A549; assay type: cell-based, human; details: Homo sapiens; A549, WST-1, 72 h; read-out: Anticancer Activity IC50 A549
Protocol: as §1, §2, §3

[4] = tested on: breast cancer MDA-MB231; experiment: WST-1 cell proliferation assay, MDA-MB231; assay type: cell-based, human; details: Homo sapiens, MDA-MB-231; MDA-MB231, WST-1, 72 h; read-out: Anticancer Activity IC50 MDA-MB231
Protocol: as §1, §2, §3

[5] = tested on: normal human fibroblasts NHDF; experiment: WST-1 cytotoxicity assay, normal fibroblasts NHDF; assay type: cell-based
Protocol: as §1, §2, §3

[6] = tested on: SNB-19, Caco-2, A549 and MDA-MB231 cancer cell lines; experiment: WST-1 assay, summary over the cancer cell line panel; assay type: cell-based, human; details: Homo sapiens; span over SNB-19, Caco-2, A549, MDA-MB231; read-out: IC50 across all investigated cancer cell lines
Protocol: as §4, §2, §3

[7] = tested on: H3, TP53, CDKN1A, BCL-2 and BAX genes in glioblastoma SNB-19; experiment: RT-qPCR gene expression, SNB-19; assay type: cell-based, human; details: SNB-19, 0.5 µg/mL, 24 h
Protocol: (§5) In this method the gene transcriptional activities of proliferation marker (H3), cell cycle regulator (TP53 and CDKNIA), and intracellular apoptosis pathway (BCL-2 and BAX) were analyzed. It has been known that the growth, metabolism, and eventual death of the cells in the body are controlled by hundreds of genes working together. The gene encoding histone H3 plays a crucial role in regulation of the expression of the genetic information included in the DNA.
(§6) Genes trancriptional activity (H3, TP53, CDKN1A, BCL-2, and BAX) was evaluated by real time RT-qPCR with OPTICON TM DNA Engine (MJ Research, Watertown, MA, USA) and QuantTect® SYBR® Green RT-PCR Kit (Quiagen, Valencia, CA). Cells were exposed to compound 4 at a 0.5 µg/mL concentration for 24 h. The RNA extraction was made by using Quick-RNA™ Kit MiniPrep (ZYMO […]). Total RNA integrity was analysed in 1.2% agarose electrophoresis with added ethidium bromide. The quantity and purity of extracted total RNA were determined by using spectrophotometric analysis with HP845 (Hewlett Packard, Waldbronn, Germany) spectrophotometer. The statistical analysis was performed using the Statistica 8.0 software. All values were expressed as means ± SE.

[8] = tested on: H3, TP53, CDKN1A, BCL-2 and BAX genes in colorectal carcinoma Caco-2; experiment: RT-qPCR gene expression, Caco-2; assay type: cell-based, human
Protocol: as §5, §6

[9] = tested on: H3, TP53, CDKN1A, BCL-2 and BAX genes in lung cancer A549; experiment: RT-qPCR gene expression, A549; assay type: cell-based, human; details: A549, 0.5 µg/mL, 24 h
Protocol: as §5, §6

[10] = tested on: H3, TP53, CDKN1A, BCL-2 and BAX genes in breast cancer MDA-MB231; experiment: RT-qPCR gene expression, MDA-MB231; assay type: cell-based, human
Protocol: as §5, §6

[11] = tested on: H3, TP53, CDKN1A, BCL-2 and BAX genes in SNB-19, Caco-2, A549 and MDA-MB231; experiment: RT-qPCR gene expression, summary over the cancer cell lines; assay type: cell-based, human
Protocol: as §5, §6

Clc1ccc(Cn2cc(CN3c4cccnc4Sc4cccnc43)nn2)cc1 [1d, 10-[(1-(4-Chlorobenzyl)-1H-1,2,3-triazol-4-yl)methyl]-1,6-diazaphenothiazine]
IC50 [1]: 4660 nM | IC50 [2]: 250 nM | IC50 [3]: 250 nM | IC50 [4]: 510 nM | cytotoxicity against normal human fibroblasts (in words) ([5]; NHDF): relatively low cytotoxicity | IC50 ([5]; normal human fibroblasts NHDF, WST-1, 72 h): > 100000 nM | IC50 [6]: 250 to 4660 nM | BAX number of mRNA copies/μg total RNA [7]: 220+/−18 mRNA Copies/μg Total RNA | BCL-2 number of mRNA copies/μg total RNA [7]: 17497+/−4607 mRNA Copies/μg Total RNA | CDKN1A number of mRNA copies/μg total RNA [7]: 308+/−51 mRNA Copies/μg Total RNA | H3 number of mRNA copies/μg total RNA [7]: 52+/−11 mRNA Copies/μg Total RNA | TP53 number of mRNA copies/μg total RNA [7]: 128+/−24 mRNA Copies/μg Total RNA | effect on expression of BCL-2 (in words) ([8]; Caco-2): slight increase | BAX number of mRNA copies/μg total RNA ([8]; Caco-2, 0.5 µg/mL, 24 h): 969+/−264 mRNA Copies/μg Total RNA | BCL-2/BAX gene expression ratio ([8]; Caco-2, 0.5 µg/mL, 24 h): 743 | BCL-2 number of mRNA copies/μg total RNA ([8]; Caco-2, 0.5 µg/mL, 24 h): 723708+/−217134 mRNA Copies/μg Total RNA | CDKN1A number of mRNA copies/μg total RNA ([8]; Caco-2, 0.5 µg/mL, 24 h): 260+/−21 mRNA Copies/μg Total RNA | H3 number of mRNA copies/μg total RNA ([8]; Caco-2, 0.5 µg/mL, 24 h): 45+/−3 mRNA Copies/μg Total RNA | TP53 number of mRNA copies/μg total RNA ([8]; Caco-2, 0.5 µg/mL, 24 h): 193+/−16 mRNA Copies/μg Total RNA | BAX number of mRNA copies/μg total RNA [9]: 835+/−231 mRNA Copies/μg Total RNA | BCL-2/BAX gene expression ratio [9]: 18 | BCL-2 number of mRNA copies/μg total RNA [9]: 15631+/−2296 mRNA Copies/μg Total RNA | CDKN1A number of mRNA copies/μg total RNA [9]: 969+/−137 mRNA Copies/μg Total RNA | H3 number of mRNA copies/μg total RNA [9]: 18+/−5 mRNA Copies/μg Total RNA | TP53 number of mRNA copies/μg total RNA [9]: 54+/−19 mRNA Copies/μg Total RNA | apoptosis pathway from gene expression ratio BCL-2/BAX (in words) ([10]; MDA-MB231): activation of the mitochondrial apoptosis | BAX number of mRNA copies/μg total RNA ([10]; MDA-MB231, 0.5 µg/mL, 24 h): 221+/−16 mRNA Copies/μg Total RNA | BCL-2 number of mRNA copies/μg total RNA ([10]; MDA-MB231, 0.5 µg/mL, 24 h): 16495+/−4607 mRNA Copies/μg Total RNA | CDKN1A number of mRNA copies/μg total RNA ([10]; MDA-MB231, 0.5 µg/mL, 24 h): 577+/−308 mRNA Copies/μg Total RNA | H3 number of mRNA copies/μg total RNA ([10]; MDA-MB231, 0.5 µg/mL, 24 h): 8+/−6 mRNA Copies/μg Total RNA | TP53 number of mRNA copies/μg total RNA ([10]; MDA-MB231, 0.5 µg/mL, 24 h): 46+/−20 mRNA Copies/μg Total RNA | effect on expression of BCL-2 (in words) ([11]; SNB-19, A549 and MDA-MB231): remarkably reduced | effect on CDKN1A copies (in words) ([11]; all cancer cells): strong decline | effect on mRNA copy number of the histone H3 gene (in words) ([11]; all cancer lines): strongly changed | effect on expression of BAX (in words) ([11]; all investigated cancer cell lines): decrease | effect on amount of mRNA copies of TP53 (in words) ([11]; all investigated cancer lines): significantly interfered
